Here are results for two compounds from paper PMC12990037, “Discovery of Two Structurally Distinct Classes of Inhibitors Targeting the Nuclease MUS81 and Enhancing Efficacy of Chemotherapy in Cancer Cells” (Journal of Medicinal Chemistry, 2026).

One test deals with MUS81. On the set-up: method as in PMID 37352577. Particulars: FRET-based DNA cleavage assay; cited from earlier work.
In another test the test system is U2OS, HEK293, and CAL51. The test can be described thus: Cell proliferation assay (CyQUANT), combination with cisplatin. The test is classed as cell-based. Conditions: cisplatin alone, 5 days. The method, then:
7 MUS81 inhibitors synergize with cisplatin to reduce cancer cell viability. (A,B) U2OS cells were treated with DMSO, MU262, or MU876 at the indicated concentrations in combination with a range of cisplatin (0–5 μM) for 96–120 h. Cell viability was assessed by the Cy-Quant assay. The survival was normalized to the DMSO-treated control. Graphs were generated in Graphpad Prism using the nonlinear regression fitting model. n ≥ 3, error bars represent s.d. (C) CAL51 WT cells were treated with DMSO, MU262, or MU876 at the indicated concentrations at each passage over 2 weeks. Cisplatin (12 μM) was added for the last 24 h before harvest. DNA damage was assessed by quantifying γH2AX foci using fluorescence microscopy and CellProfiller software. Data were visualized plotted in R software. Red markers represent the median of γH2AX foci number per nucleus; blue markers represent the percentage of cells with ≥20 γH2AX foci per nucleus. n = 3, error bars represent s.d.; ****p <0.0001 (unpaired, two-tailed t-test). TEXT PRINTED IN THE PICTURE: (C) D: γH2AX foci: 2.4 (DMSO); γH2AX foci: 59.6 (Cisplatin) | (C) MU262: γH2AX foci: 2.3 (1 μM; DMSO); γH2AX foci: 3 (2 μM; DMSO); γH2AX foci: 55.4 (1 μM; Cisplatin); γH2AX foci: 43.2 (2 μM; Cisplatin) | (C) MU876: γH2AX foci: 2.8 (0.25 μM; DMSO); γH2AX foci: 0.9 (0.5 μM; DMSO); γH2AX foci: 48.2 (0.25 μM; Cisplatin); γH2AX foci: 42.6 (0.5 μM; Cisplatin) DOUBTS OF THE COPYIST ABOUT THIS PICTURE: Panel C: the numbers in the blue markers have no measure or unit of their own printed in the picture; the axis title 'γH2AX foci' is given as the measure, but the numbers may stand for another quantity. / Panel C: 'D' is a control column with no concentration; it may not count as a substance. / Panel C: small white print on blue markers; 59.6, 55.4, 48.2, 43.2, 42.6, 2.8 and 0.9 are best readings (3, 5, 6, 8 and 9 are hard to tell apart).
CAL51 WT, CAL51 MUS81^–/–, U2OS, and HEK293 cells were seeded in a 96-well plate and treated with the respective concentration of selected inhibitors. […]

For the compound `O=C(N/N=C/c1cc(O)c(O)cc1O)c1cc2ccccc2cc1O` [Dyngo-4a], in the test with MUS81, the IC50 (in general, the concentration at which inhibition is half-maximal) is 570 nM.
With `N.N.[Cl][Pt][Cl]` [cisplatin, reference compound], the cell viability entry in the test with U2OS, HEK293, and CAL51 is “dose-dependent decrease of viability”.
